Assay results reported in patent publication US11366121B2, “Specific GNAI:GIV interaction screening assays, methods and compositions” (The Regents of the University of California, priority 2017, dated 2022).

Experiments:
GIV:Gαi = GIV:Gαi (Homo sapiens, UniProt P08754); test: GST-pulldown assay confirming hits; assay type: binding; conditions: FIG. 11E
Experimental: (§1) A pilot screen of the LOPAC1280 library (collection of known bioactive compounds) was conducted and identified lead compounds with inhibitory activity (FIG. 11A). A virtual ligand screen (VLS) of the same library (LOPAC1280) was conducted using in silico docking methods (FIG. 11B). The results from both screens were compared. […] From the virtual screen 7 ‘hits’ (FIG. 11B) were identified. Importantly, 2 of the virtual screen hits matched the results from the FP assay and a third was validated as a GIV:Gαi inhibitor. Compounds were validated by dose response curves (FIG. 11D). […] None of the other 4 hits predicted by the VLS inhibited binding.

GIV:Gαi3 interaction = GIV:Gαi3 interaction (Homo sapiens, UniProt P08754); test: fluorescence polarization (FP) assay monitoring the GIV:Gαi3 interaction, dose response curves; assay type: binding; conditions: FIG. 11D
GIV:Gαi3 interaction, sequence (P08754 whole entry): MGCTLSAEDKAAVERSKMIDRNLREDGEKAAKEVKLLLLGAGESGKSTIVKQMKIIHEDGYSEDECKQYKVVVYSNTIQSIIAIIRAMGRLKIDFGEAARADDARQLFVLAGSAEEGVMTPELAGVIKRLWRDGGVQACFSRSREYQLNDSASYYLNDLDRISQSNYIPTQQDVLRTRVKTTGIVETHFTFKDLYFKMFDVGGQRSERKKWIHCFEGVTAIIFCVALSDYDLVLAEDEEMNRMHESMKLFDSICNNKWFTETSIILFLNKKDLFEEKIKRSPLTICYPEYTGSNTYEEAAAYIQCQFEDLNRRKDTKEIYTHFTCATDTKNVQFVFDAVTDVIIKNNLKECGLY
Experimental: (§2) FIGS. 11A-11E. A HTS-compatible fluorescence polarization (FP) assay to monitor the GIV:Gαi3 interaction.
(§3) FIG. 14. Kd's determined from fluorescence polarization assays with FITC peptides and hGαi3.
as §1

[1] = biological target: GIV:Gαi3 (hGαi3 with FITC-labelled GIV C-terminal peptide KTGSPGSEVVTLQQFLEESNKLTSVQIKSSS, SEQ ID NO: 1) (Homo sapiens, UniProt P08754); test: Inhibition of GIV:Gαi3 interaction by fluorescence polarization (FITC-GIV peptide binding to hGαi3); confirmed hits, FIG. 10
UniProt P08754, sequence (P08754 whole entry): as the sequence (P08754 whole entry) above
Text: FIG. 10. Further analysis of confirmed hits validate the assay to identify inhibitors of the target.
as §2, §3
The present invention provides a research tool assay for identifying a specific modulator of GNAI, comprising: (a) combining a drug candidate with GNAI and a C-terminal GIV peptide and determining if the drug candidate inhibits GNAI interaction with the C-terminal GIV peptide; and (b) combining the drug candidate with GNAI and a DAPLE peptide and determining if the drug candidate inhibits GNAI interaction with DAPLE peptide.
In embodiments, the C-terminal GIV peptide comprises the amino acid sequence of SEQ ID NO: 1. In embodiments, the DAPLE peptide comprises the amino acid sequence of SEQ ID NO:2.
In embodiments, the determining steps are detected by fluorescent polarization.
In embodiments, the invention provides an assay and method for screening for drug candidates which act as specific inhibitors against the GNAI:GIV interface. […]
As for the first step in the assay, this small region of 31 aa GIV peptide: […] (SEQ ID NO: 1) was arrived at after careful biochemistry determined that anything less than this is less efficient in binding or activation the G protein, GNAI. […]

GIV:Gαi, sequence (P08754 whole entry): as the sequence (P08754 whole entry) above

With O=C(Nc1cccc(C(=O)Nc2ccc(S(=O)(=O)[O-])c3cc(S(=O)(=O)[O-])cc(S(=O)(=O)[O-])c23)c1)Nc1cccc(C(=O)Nc2ccc(S(=O)(=O)[O-])c3cc(S(=O)(=O)[O-])cc(S(=O)(=O)[O-])c23)c1.[Na+].[Na+].[Na+].[Na+].[Na+].[Na+] [NF023, 8,8′-[carbonylbis(imino-3,1-phenylenecarbonylimino)]bis(1,3,5-naphthalene-trisulfonic acid) hexasodium salt] the “confirmation as hit by GST-pulldown” value (GIV:Gαi) was “true hits” and the IC50 (GIV:Gαi3 interaction) was ~5 µM.

For Cc1ccc(C(=O)Nc2ccc(S(=O)(=O)O)c3cc(S(=O)(=O)O)cc(S(=O)(=O)O)c23)cc1NC(=O)c1cccc(NC(=O)Nc2cccc(C(=O)Nc3cc(C(=O)Nc4ccc(S(=O)(=O)O)c5cc(S(=O)(=O)O)cc(S(=O)(=O)O)c45)ccc3C)c2)c1 [Suramin, suramin], the Ki [1] was 49 µM.

With CC[C@@]1(O)C(=O)OCc2c1cc1n(c2=O)Cc2cc3c(CN(C)C)c(O)ccc3nc2-1 [topotecan] the “confirmation as hit by GST-pulldown” value (GIV:Gαi) was “false positive”.

O=C(O)C1=CC(=C(c2ccc(O)c(C(=O)O)c2)c2ccc(O)c(C(=O)O)c2)C=CC1=O [ATA, aurintricarboxylic acid] showed an IC50 (GIV:Gαi3 interaction) of ~5 µM.

Cc1ccc(C(=O)Nc2ccc(S(=O)(=O)O)c3cc(S(=O)(=O)O)cc(S(=O)(=O)O)c23)cc1NC(=O)c1cccc(NC(=O)Nc2cccc(C(=O)Nc3cc(C(=O)Nc4ccc(S(=O)(=O)O)c5cc(S(=O)(=O)O)cc(S(=O)(=O)O)c45)ccc3C)c2)c1 [suramin] gave an IC50 (GIV:Gαi3 interaction) of ~805 µM.
